Reference: patent publication US12139520B2 (priority 2020, dated 2024)
Bridge positions count the residues as written; N and C are the ends. Square brackets hold non-standard residues; d marks the D form. Peptide text beside a SMILES is read from it. Hyp = O=C(O)[C@@H]1C[C@@H](O)CN1; Cit = NC(=O)NCCC[C@H](N)C(=O)O

How the values were obtained:
[1] = Physical stability of peptide analogues (Thioflavin T fibrillation); type: physicochemical; conditions: maximum ThT signal normalized between hAMY maximum and buffer background; 40° C., shaking, four days; pH 7 per table title
In short: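 Samples are stressed at 40 °C for four days, being shaken at 700 rpm before each 10-min fluorescence reading of 4 μM Thioflavin T. Buffers were pH 4 acetate or pH 7 phosphate. Reported values are smoothed maximum ThT signals as a percentage of the hAMY-to-background range.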

[2] = target: T1, hAMY3 receptor (Homo sapiens, UniProt O60896+P30988); experiment: cAMP assay for in vitro receptor activation, hAMY3-R; type: cell-based; conditions: cAMP assay, hAMY3 receptor; read-out: hAMY3R EC50
T1 sequence (P30988 25-474): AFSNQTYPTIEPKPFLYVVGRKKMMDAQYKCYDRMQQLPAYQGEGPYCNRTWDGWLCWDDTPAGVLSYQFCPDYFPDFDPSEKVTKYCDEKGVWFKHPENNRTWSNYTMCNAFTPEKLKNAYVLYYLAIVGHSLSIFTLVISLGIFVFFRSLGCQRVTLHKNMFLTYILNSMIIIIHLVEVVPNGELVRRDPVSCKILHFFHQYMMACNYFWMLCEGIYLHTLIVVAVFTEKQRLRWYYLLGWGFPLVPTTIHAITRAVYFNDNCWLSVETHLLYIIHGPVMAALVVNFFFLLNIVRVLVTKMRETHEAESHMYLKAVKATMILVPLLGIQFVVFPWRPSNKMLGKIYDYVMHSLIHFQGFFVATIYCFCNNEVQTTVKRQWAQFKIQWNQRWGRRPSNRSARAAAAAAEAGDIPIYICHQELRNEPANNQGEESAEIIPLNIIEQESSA
T1 sequence (O60896 24-148 partner): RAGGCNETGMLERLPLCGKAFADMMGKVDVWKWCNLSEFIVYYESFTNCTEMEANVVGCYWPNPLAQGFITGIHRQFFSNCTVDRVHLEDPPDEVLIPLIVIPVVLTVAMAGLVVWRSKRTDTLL
In short: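 Monoclonal cell line stably overexpressing hAMY3 receptor, plated in DPBS with 0.05% casein and 0.5 mM IBMX, was stimulated with graded compound doses for 30 min at room temperature. cAMP accumulation was read by time-resolved FRET one hour after adding detection reagents.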

| Max ThT signal (%) [1] [%] | EC50 [2] [nM] | SMILES |
| --- | --- | --- |
| 4.000 | 0.015 | CC[C@H](C)[C@H](NC(=O)[C@H](CC(N)=O)NC(=O)[C@@H](NC(=O)[C@H](CCCNC(=N)N)NC(=O)[C@@H]1CCCN1C(=O)[C@H](C)NC(=O)[C@@H](NC(=O)[C@H](CC(N)=O)NC(=O)[C@H](CC(=O)O)NC(=O)[C@H](CCCCN)NC(=O)[C@H](CC(=O)O)NC(=O)[C@H](CCCCN)NC(=O)[C@H](CC(=O)O)NC(=O)[C@@H](NC(=O)[C@H](Cc1ccccc1)NC(=O)[C@H](CCC(N)=O)NC(=O)[C@H](Cc1ccc(O)cc1)NC(=O)[C@@H](NC(=O)[C@H](CCC(N)=O)NC(=O)[C@H](Cc1c[nH]cn1)NC(=O)[C@H](C)NC(=O)[C@H](CC(C)C)NC(=O)[C@H](CCCNC(=N)N)NC(=O)[C@H](CCC(N)=O)NC(=O)[C@@H](NC(=O)[C@@H](NC(=O)[C@@H]1CSSC[C@H](NC(=O)CN)C(=O)N[C@@H](CCCNC(=N)N)C(=O)N[C@@H](Cc2ccccc2)C(=O)NCC(=O)N[C@@H]([C@@H](C)O)C(=O)N1)[C@@H](C)O)C(C)C)[C@@H](C)CC)[C@@H](C)O)C(C)C)[C@@H](C)O)C(=O)NCC(=O)N1CCC[C@H]1C(=O)N[C@@H](CC(N)=O)C(=O)NCC(=O)N1C[C@H](O)C[C@H]1C(N)=O [compound 81] (H-GCRFGTCTVQRLAHQIYQFTDKDKDNVAPRTNIGPNG[Hyp]-NH2; disulfide 2-7; N-terminus assumed) |
| 2.000 | 0.016 | CC[C@H](C)[C@H](NC(=O)[C@H](CCC(N)=O)NC(=O)[C@H](Cc1c[nH]cn1)NC(=O)[C@H](C)NC(=O)[C@H](CC(C)C)NC(=O)[C@H](CCCNC(=N)N)NC(=O)[C@H](CCC(N)=O)NC(=O)[C@@H](NC(=O)[C@@H](NC(=O)[C@@H]1CSSC[C@H](NC(=O)CN)C(=O)N[C@@H](CCCNC(=N)N)C(=O)N[C@@H](Cc2ccccc2)C(=O)NCC(=O)N[C@@H]([C@@H](C)O)C(=O)N1)[C@@H](C)O)C(C)C)C(=O)N[C@@H](Cc1ccc(O)cc1)C(=O)N[C@@H](CCC(N)=O)C(=O)N[C@@H](Cc1ccccc1)C(=O)N[C@H](C(=O)N[C@@H](CC(=O)O)C(=O)N[C@@H](CCCCN)C(=O)N[C@@H](CC(=O)O)C(=O)N[C@@H](CCCCN)C(=O)N[C@@H](CC(=O)O)C(=O)N[C@@H](CC(N)=O)C(=O)N[C@H](C(=O)N[C@@H](C)C(=O)N1CCC[C@H]1C(=O)N[C@@H](CCCNC(=N)N)C(=O)N[C@H](C(=O)N[C@@H](CC(N)=O)C(=O)N[C@H](C(=O)NCC(=O)N1CCC[C@H]1C(=O)N[C@@H](CC(N)=O)C(=O)NCC(=O)N1C[C@H](O)C[C@H]1C(N)=O)C(C)C)[C@@H](C)O)C(C)C)[C@@H](C)O [compound 90] (H-GCRFGTCTVQRLAHQIYQFTDKDKDNVAPRTNVGPNG[Hyp]-NH2; disulfide 2-7; N-terminus assumed) |

Continued, compound first:

| SMILES | Max ThT signal (%) [1] [%] | EC50 [2] [nM] |
| --- | --- | --- |
| CC[C@H](C)[C@H](NC(=O)[C@H](CCC(N)=O)NC(=O)[C@H](Cc1c[nH]cn1)NC(=O)[C@H](C)NC(=O)[C@H](CC(C)C)NC(=O)[C@H](Cc1c[nH]c2ccccc12)NC(=O)[C@H](CCC(N)=O)NC(=O)[C@@H](NC(=O)[C@@H](NC(=O)[C@@H]1CSSC[C@H](NC(=O)CN)C(=O)N[C@@H](CCCNC(=N)N)C(=O)N[C@@H](Cc2ccccc2)C(=O)NCC(=O)N[C@@H]([C@@H](C)O)C(=O)N1)[C@@H](C)O)C(C)C)C(=O)N[C@@H](Cc1ccc(O)cc1)C(=O)N[C@@H](CCC(N)=O)C(=O)N[C@@H](Cc1ccccc1)C(=O)N[C@H](C(=O)N[C@@H](CC(=O)O)C(=O)N[C@@H](CCCCN)C(=O)N[C@@H](CC(=O)O)C(=O)N[C@@H](CCCCN)C(=O)N[C@@H](CC(=O)O)C(=O)N[C@@H](CC(N)=O)C(=O)N[C@H](C(=O)N[C@@H](C)C(=O)N1CCC[C@H]1C(=O)N[C@@H](CCCNC(=N)N)C(=O)N[C@H](C(=O)N[C@@H](CC(N)=O)C(=O)N[C@H](C(=O)N[C@@H](CO)C(=O)N1CCC[C@H]1C(=O)N[C@@H](CCC(N)=O)C(=O)NCC(=O)N[C@@H](Cc1ccc(O)cc1)C(N)=O)C(C)C)[C@@H](C)O)C(C)C)[C@@H](C)O [compound 340] (H-GCRFGTCTVQWLAHQIYQFTDKDKDNVAPRTNVSPQGY-NH2; disulfide 2-7; N-terminus assumed) | 1.700 | 0.022 |
| CC[C@H](C)[C@H](NC(=O)[C@H](CCC(N)=O)NC(=O)[C@H](Cc1c[nH]cn1)NC(=O)[C@H](C)NC(=O)[C@H](CC(C)C)NC(=O)[C@H](CCCNC(N)=O)NC(=O)[C@H](CCC(N)=O)NC(=O)[C@@H](NC(=O)[C@@H](NC(=O)[C@@H]1CSSC[C@H](NC(=O)CN)C(=O)N[C@@H](CCCNC(=N)N)C(=O)N[C@@H](Cc2ccccc2)C(=O)NCC(=O)N[C@@H]([C@@H](C)O)C(=O)N1)[C@@H](C)O)C(C)C)C(=O)N[C@@H](Cc1ccc(O)cc1)C(=O)N[C@@H](CCC(N)=O)C(=O)N[C@@H](Cc1ccccc1)C(=O)N[C@H](C(=O)N[C@@H](CC(=O)O)C(=O)N[C@@H](CCCCN)C(=O)N[C@@H](CC(=O)O)C(=O)N[C@@H](CCCCN)C(=O)N[C@@H](CC(=O)O)C(=O)N[C@@H](CC(N)=O)C(=O)N[C@H](C(=O)N[C@@H](C)C(=O)N1CCC[C@H]1C(=O)N[C@@H](CCCNC(=N)N)C(=O)N[C@H](C(=O)N[C@@H](CCCCN)C(=O)N[C@H](C(=O)NCC(=O)N1CCC[C@H]1C(=O)N[C@@H](CCC(N)=O)C(=O)NCC(=O)N1C[C@H](O)C[C@H]1C(N)=O)C(C)C)[C@@H](C)O)C(C)C)[C@@H](C)O [compound 259] (H-GCRFGTCTVQ[Cit]LAHQIYQFTDKDKDNVAPRTKVGPQG[Hyp]-NH2; disulfide 2-7) | 13.450 | 0.013 |
| CC[C@H](C)[C@H](NC(=O)[C@H](CCC(N)=O)NC(=O)[C@H](Cc1c[nH]cn1)NC(=O)[C@H](C)NC(=O)[C@H](CC(C)C)NC(=O)[C@H](CCCNC(=N)N)NC(=O)[C@H](CCC(N)=O)NC(=O)[C@@H](NC(=O)[C@@H](NC(=O)[C@@H]1CSSC[C@H](NC(=O)CN)C(=O)N[C@@H](CCCNC(=N)N)C(=O)N[C@@H]([C@@H](C)O)C(=O)NCC(=O)N[C@@H]([C@@H](C)O)C(=O)N1)[C@@H](C)O)C(C)C)C(=O)N[C@@H](Cc1ccc(O)cc1)C(=O)N[C@@H](CCC(N)=O)C(=O)N[C@@H](Cc1ccccc1)C(=O)N[C@H](C(=O)N[C@@H](CC(=O)O)C(=O)N[C@@H](CCCCN)C(=O)N[C@@H](Cc1ccccc1)C(=O)N[C@@H](CCCCN)C(=O)N[C@@H](CC(=O)O)C(=O)N[C@@H](CC(N)=O)C(=O)N[C@H](C(=O)N[C@@H](C)C(=O)N1CCC[C@H]1C(=O)N[C@@H](CCCNC(=N)N)C(=O)N[C@@H](CO)C(=O)N[C@@H](CCCCN)C(=O)N[C@H](C(=O)N[C@@H](CO)C(=O)N1CCC[C@H]1C(=O)N[C@@H](CCC(N)=O)C(=O)N[C@H](C(=O)N[C@@H](Cc1c[nH]c2ccccc12)C(N)=O)[C@@H](C)O)[C@@H](C)CC)C(C)C)[C@@H](C)O [compound 184] (H-GCRTGTCTVQRLAHQIYQFTDKFKDNVAPRSKISPQTW-NH2; disulfide 2-7; N-terminus assumed) | 0.800 | 0.09 |
